According to patent US9399646B2 (Genentech, Inc., priority 2010, dated 2016):

Legend:
[1] = biological target: T1, ER-α in MCF-7 cells (Homo sapiens, UniProt P03372); assay: Breast cancer cell ER-α in cell western assay (SP1); type: cell-based; parameters: endogenous in cells; host or cells: MCF-7; settings: 4 or 24 hr post compound addition; for Emax: MCF7, SP1 antibody, read-out: ER-α In Cell Western Assay (SP1) Max Response; for DC50: SP1 antibody, read-out: ER-α In Cell Western Assay (SP1) IC50
T1 sequence (P03372 1-595): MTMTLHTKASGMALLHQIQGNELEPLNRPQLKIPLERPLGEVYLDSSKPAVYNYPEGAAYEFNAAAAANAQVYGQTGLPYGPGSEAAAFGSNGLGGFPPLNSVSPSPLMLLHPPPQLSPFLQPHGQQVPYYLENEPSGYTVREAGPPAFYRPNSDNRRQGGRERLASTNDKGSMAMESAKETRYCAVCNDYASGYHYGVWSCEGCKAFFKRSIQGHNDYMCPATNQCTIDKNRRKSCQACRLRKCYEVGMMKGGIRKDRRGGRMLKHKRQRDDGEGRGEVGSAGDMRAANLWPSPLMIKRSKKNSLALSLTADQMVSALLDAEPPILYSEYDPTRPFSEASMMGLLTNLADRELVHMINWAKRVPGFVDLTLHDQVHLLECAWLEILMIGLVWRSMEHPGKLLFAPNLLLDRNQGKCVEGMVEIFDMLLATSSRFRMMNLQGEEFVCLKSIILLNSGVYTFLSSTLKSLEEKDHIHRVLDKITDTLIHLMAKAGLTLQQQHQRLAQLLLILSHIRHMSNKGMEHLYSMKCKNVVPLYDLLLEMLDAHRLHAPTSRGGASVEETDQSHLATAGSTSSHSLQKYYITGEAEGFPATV
In short: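 MCF-7, charcoal-stripped FBS/RPMI, 3200 cells/well, adhered overnight. Formalin fix, SP1 Ab o/n 4 °C, IRDye 800CW + DRAQ5; % ER = 800/700 ratio vs untreated.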

[2] = test system: MCF-7 cells; assay: Breast cancer cell viability assay (CellTiter-Glo, 5 days); type: cell-based; settings: 5 days' compound exposure; for IC50: Homo sapiens, MCF7, 120 h
In short: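 Eleven-point semilog compound series, final 0.3-0.000003 μM, added to overnight-adhered MCF-7 cells (320/well; RPMI, 10% FBS, 20 mM HEPES) for 5 days. Viability read by CellTiter-Glo luminescence, background from medium without cells subtracted, expressed relative to untreated cells.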

| Compound | Emax [1] [%] | DC50 [1] [nM] | MCF7 Viability Assay Max Response [2] | IC50 [2] [nM] |
| --- | --- | --- | --- | --- |
| CC/C(=C(/c1ccc(/C=C/C(=O)O)cc1)c1ccc2[nH]ncc2c1)c1ccc2c(c1)OCO2 [Compound 240, (E)-3-(4-((E)-2-(Benzo[d][1,3]dioxol-5-yl)-1-(1H-indazol-5-yl)but-1-en-1-yl)phenyl)acrylic acid] | ≥ 40 | ≤ 100 | ++ (++ = a single % value ≧ 40%) | ≤ 100 |
| CC/C(=C(/c1ccc(/C=C/C(=O)O)cc1)c1ccc2[nH]ncc2c1)c1sccc1C [Compound 241, (E)-3-(4-((E)-1-(1H-Indazol-5-yl)-2-(3-methylthiophen-2-yl)but-1-en-1-yl)phenyl)acrylic acid] | ≥ 40 | ≤ 100 | ++ (++ = a single % value ≧ 40%) | ≤ 100 |
| CC/C(=C(/c1ccc(/C=C/C(=O)O)cc1)c1ccc2[nH]ncc2c1F)c1cscc1C [Compound 242, (E)-3-(4-((E)-1-(4-Fluoro-1H-indazol-5-yl)-2-(4-methylthiophen-3-yl)but-1-en-1-yl)phenyl)acrylic acid] | ≥ 40 | ≤ 100 | ++ (++ = a single % value ≧ 40%) | ≤ 100 |
| CC/C(=C(/c1ccc(/C=C/C(=O)O)cc1)c1cc(F)c2[nH]ncc2c1)c1ccncc1Cl [Compound 245, (E)-3-(4-((E)-2-(3-chloropyridin-4-yl)-1-(7-fluoro-1H-indazol-5-yl)but-1-en-1-yl)phenyl)acrylic acid] | ≥ 40 | ≤ 100 | ++ (++ = a single % value ≧ 40%) | ≤ 100 |
| CC/C(=C(/c1ccc(/C=C/C(=O)O)cc1)c1cnc2[nH]ccc2n1)c1ccccc1 [Compound 246, (E)-3-(4-((E)-2-Phenyl-1-(5H-pyrrolo[2,3-b]pyrazin-2-yl)but-1-en-1-yl)phenyl)acrylic acid] | ≥ 40 | > 100 | + (+ = a single % value < 40%) | > 100 |
| CC/C(=C(/c1ccc(/C=C/C(=O)O)cc1)c1ccc2[nH]ncc2c1)c1ccc2occc2c1 [Compound 247, (E)-3-(4-((E)-2-(Benzofuran-5-yl)-1-(1H-indazol-5-yl)but-1-en-1-yl)phenyl)acrylic acid] | ≥ 40 | ≤ 100 | ++ (++ = a single % value ≧ 40%) | ≤ 100 |
| CC/C(=C(/c1ccc(/C=C/C(=O)O)cc1)c1ccc2[nH]ncc2c1)c1cccc(N2CCCC2)c1 [Compound 249] | ≥ 40 | ≤ 100 | ++ (++ = a single % value ≧ 40%) | > 100 |
| CC/C(=C(/c1ccc(/C=C/C(=O)O)cc1)c1ccc2[nH]ncc2c1)c1ccc2c(c1)OCCO2 [Compound 250, (E)-3-(4-((E)-2-(2,3-Dihydrobenzo[b][1,4]dioxin-6-yl)-1-(1H-indazol-5-yl)but-1-en-1-yl)phenyl)acrylic acid] | ≥ 40 | ≤ 100 | ++ (++ = a single % value ≧ 40%) | ≤ 100 |
| CC/C(=C(/c1ccc(/C=C/C(=O)O)cc1)c1ccc2[nH]ncc2c1)c1ccc2cn[nH]c2c1 [Compound 251, (E)-3-(4-((E)-1-(1H-Indazol-5-yl)-2-(1H-indazol-6-yl)but-1-en-1-yl)phenyl)acrylic acid] | ≥ 40 | > 100 | ++ (++ = a single % value ≧ 40%) | > 100 |
| CC/C(=C(/c1ccc(/C=C/C(=O)O)cc1)c1ccc2[nH]ncc2c1)c1cccc(-n2cccn2)c1 [Compound 252, (E)-3-(4-((E)-2-(3-(1H-Pyrazol-1-yl)phenyl)-1-(1H-indazol-5-yl)but-1-en-1-yl)phenyl)acrylic acid] | ≥ 40 | ≤ 100 | ++ (++ = a single % value ≧ 40%) | > 100 |
| CC/C(=C(/c1ccc(/C=C/C(=O)O)cc1)c1cc(F)c2[nH]ccc2c1)c1ccc(Cl)cc1Cl [Compound 253, (E)-3-(4-((E)-2-(2,4-Dichlorophenyl)-1-(7-fluoro-1H-indol-5-yl)but-1-en-1-yl)phenyl)acrylic acid] | ≥ 40 | ≤ 100 | ++ (++ = a single % value ≧ 40%) | ≤ 100 |
| CC/C(=C(/c1ccc(/C=C/C(=O)O)cc1)c1cc(F)c2[nH]ccc2c1)c1ccc(F)cc1Cl [Compound 254, (E)-3-(4-((E)-2-(2-Chloro-4-fluorophenyl)-1-(7-fluoro-1H-indol-5-yl)but-1-en-1-yl)phenyl)acrylic acid] | ≥ 40 | ≤ 100 | ++ (++ = a single % value ≧ 40%) | ≤ 100 |
| CC/C(=C(/c1ccc(/C=C/C(=O)O)cc1)c1ccc2[nH]ncc2c1)c1ccc2scnc2c1 [Compound 255, (E)-3-(4-((E)-2-(Benzo[d]thiazol-5-yl)-1-(1H-indazol-5-yl)but-1-en-1-yl)phenyl)acrylic acid] | ≥ 40 | ≤ 100 | ++ (++ = a single % value ≧ 40%) | ≤ 100 |
| CC/C(=C(/c1ccc(/C=C/C(=O)O)cc1)c1ccc2[nH]ncc2c1)c1ccc2c(c1)CCO2 [Compound 256, (E)-3-(4-((E)-2-(2,3-Dihydrobenzofuran-5-yl)-1-(1H-indazol-5-yl)but-1-en-1-yl)phenyl)acrylic acid] | ≥ 40 | ≤ 100 | ++ (++ = a single % value ≧ 40%) | ≤ 100 |
| Cc1cscc1/C(CC(C)C)=C(\c1ccc(/C=C/C(=O)O)cc1)c1ccc2[nH]ncc2c1 [Compound 257, (E)-3-(4-((E)-1-(1H-Indazol-5-l)-4-methyl-2-(4-methylthiophen-3-yl)pent-1-en-1-yl)phenyl)acrylic acid] | ≥ 40 | ≤ 100 | ++ (++ = a single % value ≧ 40%) | ≤ 100 |
| CC/C(=C(/c1ccc(/C=C/C(=O)O)cc1)c1ccc2[nH]ncc2c1)c1ccc2cnn(C)c2c1 [Compound 258, (E)-3-(4-((E)-1-(1H-Indazol-5-yl)-2-(1-methyl-1H-indazol-6-yl)but-1-en-1-yl)phenyl)acrylic acid] | ≥ 40 | ≤ 100 | ++ (++ = a single % value ≧ 40%) | > 100 |
| CC/C(=C(/c1ccc(/C=C/C(=O)O)cc1)c1ccc2[nH]ncc2c1)c1ccc2ncsc2c1 [Compound 259, (E)-3-(4-((E)-2-(Benzo[d]thiazol-6-yl)-1-(1H-indazol-5-yl)but-1-en-1-yl)phenyl)acrylic acid] | ≥ 40 | ≤ 100 | ++ (++ = a single % value ≧ 40%) | ≤ 100 |
| CC/C(=C(/c1ccc(/C=C/C(=O)O)cc1)c1ccc2[nH]ncc2c1)c1ccc2nccn2c1 [Compound 260, (E)-3-(4-((E)-2-(Imidazo[1,2-a]pyridin-6-yl)-1-(1H-indazol-5-yl)but-1-en-1-yl)phenyl)acrylic acid] | < 40 | > 100 | + (+ = a single % value < 40%) | > 100 |
| CC/C(=C(/c1ccc(/C=C/C(=O)O)cc1)c1ccc2[nH]ncc2c1)c1cccc(Oc2ccccc2)c1 [Compound 261, (E)-3-(4-((E)-1-(1H-Indazol-5-yl)-2-(3-phenoxyphenyl)but-1-en-1-yl)phenyl)acrylic acid] | ≥ 40 | ≤ 100 | ++ (++ = a single % value ≧ 40%) | ≤ 100 |
| CC/C(=C(/c1ccc(/C=C/C(=O)O)cc1)c1ccc2[nH]ncc2c1)c1ccc2c(c1)N(C)C(=O)CO2 [Compound 262, (E)-3-(4-((E)-1-(1H-Indazol-5-yl)-2-(4-methyl-3-oxo-3,4-dihydro-2H-benzo[b][1,4]oxazin-6-yl)but-1-en-1-yl)phenyl)acrylic acid] | ≥ 40 | > 100 | ++ (++ = a single % value ≧ 40%) | > 100 |
| CC/C(=C(/c1ccc(/C=C/C(=O)O)cc1)c1ccc2[nH]ncc2c1)c1ccc(Oc2ccccc2)cc1 [Compound 263, (E)-3-(4-((E)-1-(1H-Indazol-5-yl)-2-(4-phenoxyphenyl)but-1-en-1-yl)phenyl)acrylic acid] | ≥ 40 | ≤ 100 | ++ (++ = a single % value ≧ 40%) | ≤ 100 |
| CC/C(=C(/c1ccc(/C=C/C(=O)O)cc1)c1ccc2[nH]ncc2c1)c1ccc(-n2cccn2)cc1 [Compound 264, (E)-3-(4-((E)-2-(4-(1H-Pyrazol-1-yl)phenyl)-1-(1H-indazol-5-yl)but-1-en-1-yl)phenyl)acrylic acid] | ≥ 40 | > 100 | ++ (++ = a single % value ≧ 40%) | > 100 |
